For series [1], the system named is several mammalian cell types. As to conditions: energy-independent manner; cited from earlier work.
Series [2] is described as follows: Survival during 6 weeks treatment after coronary occlusion. Format: in vivo, rat. To be noted: 74 rats randomized to peptide or water, following 6 weeks treatment. How it is done: Rats were anesthetized, ventilated, and a thoracotomy performed in the left 4th intercostal space. Temperature was maintained at 36° C. by placing the rats on a heating pad during the procedure. The pericardium was excised and the proximal left coronary artery isolated and permanently occluded with a suture. Coronary artery occlusion was confirmed by cyanosis and akinesis of the anterior wall of the ventricle. The chest was closed, air evacuated, and the rats allowed to recover. Analgesia was administered per the veterinarian. An echocardiogram was obtained at approximately 15 minutes post coronary artery occlusion. At 2 hours rats were randomized to receive chronic daily D-Arg-2′6′-Dmt-Lys-Phe-NH2 (delivered subcutaneously by an Alzet Osmotic Pump—3 mg/kg/day) or water. […] Heart rate and blood pressure were measured. A Millar catheter was inserted into the left ventricle and LV systolic pressure, LV end diastolic pressure, +dP/dt, and −dP/dt were measured. […] Postmortem LV volume was measured by filling the LV cavity with fluid and measuring the total fluid. […] Quantitative histologic analysis included: total circumference, scar circumference, non-infarcted wall circumference, total LV area, total LV cavity area, LV wall thickness (at several points), non-infarcted wall thickness; myocardial infarct expansion index. […]

Square brackets hold non-standard residues; d marks the D form. Peptide text beside a SMILES is read from it. Dmt = Cc1cc(O)cc(C)c1C[C@H](N)C(=O)O

On to 2′,6′-Dmt-D-Arg-Phe-Lys-NH2, for which the “penetration of the plasma membrane” value in series [1] was “readily penetrates”.
As to `Cc1cc(O)cc(C)c1C[C@H](NC(=O)[C@H](N)CCCNC(=N)N)C(=O)N[C@@H](CCCCN)C(=O)N[C@@H](Cc1ccccc1)C(N)=O` [D-Arg-2′6′-Dmt-Lys-Phe-NH2] (H-[dR][Dmt]KF-NH2), the deaths during treatment entry in series [2] is recorded as “no rats died”.

The record behind these values is patent US11266709B2, “Methods for the regulation of matrix metalloproteinase expression” (Stealth BioTherapeutics Corp, priority 2013, dated 2022).
